According to patent publication US6395896B2, “Pyridazine derivatives, manufacturing method and related composition” (Shiseido Co., Ltd., priority 1999, dated 2002):

Tests used:
skin (face) = assay: Skin irritation test: continuous use test; assay type: in vivo, human; settings: 10 wt % ultraviolet absorbent, twice a day for 4 weeks
Experimental: Sample (10 wt % of ultraviolet absorbent) is the same as test example 2. The continuous use test by the healthy subjects was carried out with one group of twenty subjects. A proper amount of each sample was applied to the face twice a day for 4 weeks. The evaluation standard of Table 5 was judged. [table] The calculated average score was evaluated by the next standard. A: Average score is 0. B: Average score is over 0 and less than 1. C: Average score is 1 or more, and less than 2. D: Average score is 2 or more.

[1] = Perfume stabilization effect (sequestering agent combination); set-up: key to Sunlight exposure (80 MJ) Smell evaluation: A: No change; B: No almost change; C: Yes change; settings: for smell change: with a sequestering agent, compared with compositions without; for Sunlight exposure (80 MJ) Smell evaluation: amounts wt %
Experimental: Next, for combinations with sequestering agent, photostabilization effect for each perfume was studied by the following evaluation formulation.
Each test sample was prepared. Smell change of samples exposed to sunlight (80 MJ) was observed (judgement by perfumier).

Compound: Oc1nncc(N2CCOCC2)c1N1CCOCC1 [4,5-Dimorpholino-3-hydroxypyridazine]
- Judgment (continuous use test, average skin reaction score) (skin (face); Cream): A (Average score is 0.)
- Judgment (continuous use test, average skin reaction score) (skin (face); Lotion): A (Average score is 0.)
- smell change ([1]; base perfume, Table 29): very small
- Sunlight exposure (80 MJ) Smell evaluation ([1]; natural perfume Bergamot oil 0.03, photostabilizer 0.05 + Trisodium ethylenediamine tetraacetate 0.03): A
- Sunlight exposure (80 MJ) Smell evaluation ([1]; natural perfume Bergamot oil 0.03, photostabilizer 0.05, no sequestering agent): B
- Sunlight exposure (80 MJ) Smell evaluation ([1]; natural perfume Jasmine oil 0.03, photostabilizer 0.02 + Sodium metaphosphate 0.03): A
- Sunlight exposure (80 MJ) Smell evaluation ([1]; natural perfume Jasmine oil 0.03, photostabilizer 0.02, no sequestering agent): B
- Sunlight exposure (80 MJ) Smell evaluation ([1]; natural perfume Lavender oil 0.03, photostabilizer 0.02 + Trisodium hydroxyethyl ethylenediamine triacetate 0.03): A
- Sunlight exposure (80 MJ) Smell evaluation ([1]; natural perfume Lavender oil 0.03, photostabilizer 0.02, no sequestering agent): B
- Sunlight exposure (80 MJ) Smell evaluation ([1]; natural perfume Musk oil 0.03, photostabilizer 0.1 + Sodium metaphosphate 0.03): A
- Sunlight exposure (80 MJ) Smell evaluation ([1]; natural perfume Musk oil 0.03, photostabilizer 0.1, no sequestering agent): B
- Sunlight exposure (80 MJ) Smell evaluation ([1]; natural perfume Orange oil 0.03, photostabilizer 0.05 + Sodium metaphosphate 0.03): A
- Sunlight exposure (80 MJ) Smell evaluation ([1]; natural perfume Orange oil 0.03, photostabilizer 0.05, no sequestering agent): B
- Sunlight exposure (80 MJ) Smell evaluation ([1]; natural perfume Peppermint oil 0.03, photostabilizer 0.01 + Trisodium ethylenediamine triacetate 0.03): A
- Sunlight exposure (80 MJ) Smell evaluation ([1]; natural perfume Peppermint oil 0.03, photostabilizer 0.01, no sequestering agent): B
- Sunlight exposure (80 MJ) Smell evaluation ([1]; natural perfume Rose oil 0.03, photostabilizer 0.02 + Trisodium ethylenediamine tetraacetate 0.03): A
- Sunlight exposure (80 MJ) Smell evaluation ([1]; natural perfume Rose oil 0.03, photostabilizer 0.02, no sequestering agent): B
- Sunlight exposure (80 MJ) Smell evaluation ([1]; natural perfume Ylang ylang oil 0.03, photostabilizer 0.02 + Trisodium hydroxyethyl ethylenediamine triacetate 0.03): A
- Sunlight exposure (80 MJ) Smell evaluation ([1]; natural perfume Ylang ylang oil 0.03, photostabilizer 0.02, no sequestering agent): B
- smell change ([1]; natural perfume, Table 27): very small
- Sunlight exposure (80 MJ) Smell evaluation ([1]; perfume Aldehyde 0.03, photostabilizer 0.05 + Trisodium hydroxyethyl ethylenediamine triacetate 0.03): A
- Sunlight exposure (80 MJ) Smell evaluation ([1]; perfume Aldehyde 0.03, photostabilizer 0.05, no sequestering agent): B
- Sunlight exposure (80 MJ) Smell evaluation ([1]; perfume Animal 0.03, photostabilizer 0.1 + Trisodium ethylenediamine tetraacetate 0.03): A
- Sunlight exposure (80 MJ) Smell evaluation ([1]; perfume Animal 0.03, photostabilizer 0.1, no sequestering agent): B
- Sunlight exposure (80 MJ) Smell evaluation ([1]; perfume Fruity 0.03, photostabilizer 0.03 + Sodium metaphosphate 0.03): A
- Sunlight exposure (80 MJ) Smell evaluation ([1]; perfume Fruity 0.03, photostabilizer 0.03, no sequestering agent): B
- Sunlight exposure (80 MJ) Smell evaluation ([1]; perfume Green 0.03, photostabilizer 0.01 + Trisodium hydroxyethyl ethylenediamine triacetate 0.03): A
- Sunlight exposure (80 MJ) Smell evaluation ([1]; perfume Green 0.03, photostabilizer 0.01, no sequestering agent): B
- Sunlight exposure (80 MJ) Smell evaluation ([1]; perfume Jasmine 0.03, photostabilizer 0.02 + Trisodium ethylenediamine tetraacetate 0.03): A
- Sunlight exposure (80 MJ) Smell evaluation ([1]; perfume Jasmine 0.03, photostabilizer 0.02, no sequestering agent): B
- Sunlight exposure (80 MJ) Smell evaluation ([1]; perfume Muguet 0.03, photostabilizer 0.02 + Sodium metaphosphate 0.03): A
- Sunlight exposure (80 MJ) Smell evaluation ([1]; perfume Muguet 0.03, photostabilizer 0.02, no sequestering agent): B
- Sunlight exposure (80 MJ) Smell evaluation ([1]; perfume Oriental 0.03, photostabilizer 0.01 + Trisodium ethylenediamine tetraacetate 0.03): A
- Sunlight exposure (80 MJ) Smell evaluation ([1]; perfume Oriental 0.03, photostabilizer 0.01, no sequestering agent): B
- Sunlight exposure (80 MJ) Smell evaluation ([1]; perfume Rose 0.03, photostabilizer 0.02 + Trisodium hydroxyethyl ethylenediamine triacetate 0.03): A
- Sunlight exposure (80 MJ) Smell evaluation ([1]; perfume Rose 0.03, photostabilizer 0.02, no sequestering agent): B
- Sunlight exposure (80 MJ) Smell evaluation ([1]; synthetic perfume Benzyl benzoate 0.03, photostabilizer 0.02 + Trisodium hydroxyethyl ethylenediamine triacetate 0.03): A
- Sunlight exposure (80 MJ) Smell evaluation ([1]; synthetic perfume Benzyl benzoate 0.03, photostabilizer 0.02, no sequestering agent): B
- Sunlight exposure (80 MJ) Smell evaluation ([1]; synthetic perfume Citral 0.03, photostabilizer 0.01 + Trisodium hydroxyethyl ethylenediamine triacetate 0.03): A
- Sunlight exposure (80 MJ) Smell evaluation ([1]; synthetic perfume Citral 0.03, photostabilizer 0.01, no sequestering agent): B
- Sunlight exposure (80 MJ) Smell evaluation ([1]; synthetic perfume Lilial 0.03, photostabilizer 0.1 + Sodium metaphosphate 0.03): A
- Sunlight exposure (80 MJ) Smell evaluation ([1]; synthetic perfume Lilial 0.03, photostabilizer 0.1, no sequestering agent): B
- Sunlight exposure (80 MJ) Smell evaluation ([1]; synthetic perfume Limonene 0.03, photostabilizer 0.02 + Trisodium hydroxyethyl ethylenediamine triacetate 0.03): A
- Sunlight exposure (80 MJ) Smell evaluation ([1]; synthetic perfume Limonene 0.03, photostabilizer 0.02, no sequestering agent): B
- Sunlight exposure (80 MJ) Smell evaluation ([1]; synthetic perfume Oranthiol 0.03, photostabilizer 0.05 + Sodium metaphosphate 0.03): A
- Sunlight exposure (80 MJ) Smell evaluation ([1]; synthetic perfume Oranthiol 0.03, photostabilizer 0.05, no sequestering agent): B
- Sunlight exposure (80 MJ) Smell evaluation ([1]; synthetic perfume Rose oxide 0.03, photostabilizer 0.05 + Trisodium ethylenediamine tetraacetate 0.03): A
- Sunlight exposure (80 MJ) Smell evaluation ([1]; synthetic perfume Rose oxide 0.03, photostabilizer 0.05, no sequestering agent): B
- Sunlight exposure (80 MJ) Smell evaluation ([1]; synthetic perfume cis-3-Hexenol 0.03, photostabilizer 0.02 + Trisodium ethylenediamine tetraacetate 0.03): A
- Sunlight exposure (80 MJ) Smell evaluation ([1]; synthetic perfume cis-3-Hexenol 0.03, photostabilizer 0.02, no sequestering agent): B
- Sunlight exposure (80 MJ) Smell evaluation ([1]; synthetic perfume β-ionone 0.03, photostabilizer 0.01 + Trisodium ethylenediamine tetraacetate 0.03): A
- Sunlight exposure (80 MJ) Smell evaluation ([1]; synthetic perfume β-ionone 0.03, photostabilizer 0.01, no sequestering agent): B
- smell change ([1]; synthetic perfume, Table 28): very small
